From ChEMBL document CHEMBL4257227, “Deubiquitinase inhibitors and methods for use of the same” (2016) come the findings set out here.

The source made the active and inactive calls. The rule behind the calls is not given here.

One series concerns Tulane virus. Briefly: Antiviral activity against Tulane virus infected in […] LLC-MK cells assessed as reduction in viral plaque forming units. The class given is functional, organism-based.
For series [1], the system named is Mus musculus. Briefly: Inhibition of Usp9x in tumor of human MM1S cells xenografted in NOD/SCID/gamma-2 knockout mouse at 15 mg/kg, ip once per day for 14 days. The format is organism-based. Particulars: in vivo, 336 h. In general terms: A xenograft is tissue or cells of one species grown in another, often human tumour cells in immunodeficient mice.
Series [2] relates to A375/R. Briefly: Induction of apoptosis in human A375R cells assessed as induction of caspase-3 activation. The class given is functional, cell-based.
Series [3] deals with T1, Ubiquitin carboxyl-terminal hydrolase 5 (Homo sapiens) (UniProt P45974).
T1 sequence (whole entry): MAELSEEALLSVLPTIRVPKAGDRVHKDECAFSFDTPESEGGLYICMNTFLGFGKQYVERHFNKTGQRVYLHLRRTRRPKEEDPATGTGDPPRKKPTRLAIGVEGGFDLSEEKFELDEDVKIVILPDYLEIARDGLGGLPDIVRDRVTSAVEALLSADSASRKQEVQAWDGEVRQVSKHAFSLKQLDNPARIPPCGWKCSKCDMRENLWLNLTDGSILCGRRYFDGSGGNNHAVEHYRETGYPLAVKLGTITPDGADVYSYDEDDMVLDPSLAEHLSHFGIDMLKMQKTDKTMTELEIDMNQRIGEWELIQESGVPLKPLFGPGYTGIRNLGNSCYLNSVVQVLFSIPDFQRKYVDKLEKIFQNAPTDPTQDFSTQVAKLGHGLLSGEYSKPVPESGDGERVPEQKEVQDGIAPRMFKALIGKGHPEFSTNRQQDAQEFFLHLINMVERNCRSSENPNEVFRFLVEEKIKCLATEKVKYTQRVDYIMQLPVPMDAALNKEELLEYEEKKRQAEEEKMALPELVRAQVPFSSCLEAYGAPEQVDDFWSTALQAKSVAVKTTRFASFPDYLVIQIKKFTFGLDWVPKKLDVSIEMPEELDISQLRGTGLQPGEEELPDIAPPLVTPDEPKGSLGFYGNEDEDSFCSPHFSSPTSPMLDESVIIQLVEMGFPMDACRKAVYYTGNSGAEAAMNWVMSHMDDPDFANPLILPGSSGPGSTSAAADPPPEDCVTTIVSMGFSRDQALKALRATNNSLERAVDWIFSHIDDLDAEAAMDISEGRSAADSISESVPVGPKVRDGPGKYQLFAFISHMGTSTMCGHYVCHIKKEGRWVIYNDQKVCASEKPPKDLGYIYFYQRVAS
Description: Inhibition of USP5 in Vemurafenib […] human A375R cells assessed as reduction in ERK phosphorylation.

The subject of series [4] is Mus musculus. Briefly: Toxicity in human A375 cells xenografted NOD/SCID/gamma-2 knockout mouse assessed as effect on behaviour at 7.5 to 15 mg/kg, ip once per day for 8 days. The format is functional, organism-based.
For series [5], the system named is Mus musculus. Description: Toxicity in human A375 cells xenografted NOD/SCID/gamma-2 knockout mouse assessed as effect on mobility at 7.5 to 15 mg/kg, ip once per day for 8 days. The format is functional, organism-based.
The nature of series [6]: Plasma concentration in Balb/c mouse at 30 mg/kg, po after 2 hrs by LC-MS analysis. The class given is ADME, organism-based.
For another series, the system named is MM1.S. Briefly: Induction of apoptosis in human MM1S cells at 0.3125 to 5 uM incubated for 24 hrs by annexin V staining based flow cytometry. The format is functional, cell-based. A general note: In flow cytometry, cells or beads pass a laser one at a time.
Series [7] is described as follows: Plasma concentration in Balb/c mouse at 10 mg/kg, iv after 2 hrs by LC-MS analysis. The format is ADME, organism-based.
For series [8], the target named is Ubiquitin carboxyl-terminal hydrolase 9X (Homo sapiens) (UniProt Q93008). Briefly: Inhibition of Usp9x in human MM1.S cells assessed as reduction in caspase activity by measuring cleaved PARP protein levels at 5 uM incubated for 5 to 240 mins by SDS-PAGE and immunoblotting. The format is cell-based. (In general: In western blotting, separated proteins are transferred to a membrane and probed.)

Series [9] relates to Mus musculus. Briefly: Toxicity in human A375 cells xenografted NOD/SCID/gamma-2 knockout mouse assessed effect on body weight at 15 mg/kg, ip once per day for 8 days. The class given is functional, organism-based.
Series [10] relates to A375/R. Description: Induction of apoptosis in human A375R cells assessed as induction of PARP cleavage. The class given is functional, cell-based.
For series [11], the system named is Mus musculus. Briefly: Inhibition of Usp9x in human MM1S cells xenografted in NOD/SCID/gamma-2 knockout mouse assessed as reduction in Mcl-1 protein levels at 15 mg/kg, ip once per day for 14 days. The format is functional, organism-based.
The target in series [12] is T1, Ubiquitin carboxyl-terminal hydrolase 5 (Homo sapiens). Description: Inhibition of USP5 in Vemurafenib […] human A375R cells assessed as increase in NOXA protein level.
The test system of the next series is A-375. Description: Antitumor activity against human A375 cells xenografted in NOD/SCID/gamma-2 knockout mouse assessed as inhibition of tumor growth at 7.5 mg/kg, ip once per day for 8 days. The format is functional, organism-based.
Series [13] deals with Ubiquitin carboxyl-terminal hydrolase 9X (Homo sapiens) (UniProt Q93008). Briefly: Inhibition of USP9x in Vemurafenib sensitive human A375 cells.
The subject of series [14] is A375/R. Briefly: Induction of apoptosis in human A375R cells assessed as induction of Bid cleavage. The format is functional, cell-based.
For series [15], the system named is Murine norovirus. Briefly: Antiviral activity against Murine norovirus infected in mouse RAW264.7 cells assessed as reduction in viral plaque forming units. The format is functional, organism-based.
Series [16] relates to Mus musculus. Briefly: Toxicity in human MM1S cells xenografted NOD/SCID/gamma-2 knockout mouse assessed effect on body weight at 2.5 to 10 mg/kg, ip once per day for 14 days. The format is functional, organism-based.
In series [17] the target is T1, Ubiquitin carboxyl-terminal hydrolase 5 (Homo sapiens). Briefly: Inhibition of USP5 in Vemurafenib resistant human A375 cells assessed as reduction in ERK phosphorylation.
The test system of series [18] is Murine norovirus. Description: Antiviral activity against Murine norovirus infected in Swiss Webster bone marrow derived macrophages assessed as reduction in viral plaque forming units. The format is functional, organism-based.
The target in series [19] is T1, Ubiquitin carboxyl-terminal hydrolase 5 (Homo sapiens). Briefly: Inhibition of USP5 in Vemurafenib […] human A375R cells assessed as reduction in STAT3 phosphorylation.
Series [20] concerns the target Ubiquitin carboxyl-terminal hydrolase 9X (Homo sapiens) (UniProt Q93008). Briefly: Inhibition of Usp9x in human MM1.S cells assessed as reduction in MCL-1 protein levels at 5 uM incubated for 5 to 240 mins by SDS-PAGE and immunoblotting. The class given is cell-based.

Sequence of Ubiquitin carboxyl-terminal hydrolase 9X (Homo sapiens) (Q93008 whole entry): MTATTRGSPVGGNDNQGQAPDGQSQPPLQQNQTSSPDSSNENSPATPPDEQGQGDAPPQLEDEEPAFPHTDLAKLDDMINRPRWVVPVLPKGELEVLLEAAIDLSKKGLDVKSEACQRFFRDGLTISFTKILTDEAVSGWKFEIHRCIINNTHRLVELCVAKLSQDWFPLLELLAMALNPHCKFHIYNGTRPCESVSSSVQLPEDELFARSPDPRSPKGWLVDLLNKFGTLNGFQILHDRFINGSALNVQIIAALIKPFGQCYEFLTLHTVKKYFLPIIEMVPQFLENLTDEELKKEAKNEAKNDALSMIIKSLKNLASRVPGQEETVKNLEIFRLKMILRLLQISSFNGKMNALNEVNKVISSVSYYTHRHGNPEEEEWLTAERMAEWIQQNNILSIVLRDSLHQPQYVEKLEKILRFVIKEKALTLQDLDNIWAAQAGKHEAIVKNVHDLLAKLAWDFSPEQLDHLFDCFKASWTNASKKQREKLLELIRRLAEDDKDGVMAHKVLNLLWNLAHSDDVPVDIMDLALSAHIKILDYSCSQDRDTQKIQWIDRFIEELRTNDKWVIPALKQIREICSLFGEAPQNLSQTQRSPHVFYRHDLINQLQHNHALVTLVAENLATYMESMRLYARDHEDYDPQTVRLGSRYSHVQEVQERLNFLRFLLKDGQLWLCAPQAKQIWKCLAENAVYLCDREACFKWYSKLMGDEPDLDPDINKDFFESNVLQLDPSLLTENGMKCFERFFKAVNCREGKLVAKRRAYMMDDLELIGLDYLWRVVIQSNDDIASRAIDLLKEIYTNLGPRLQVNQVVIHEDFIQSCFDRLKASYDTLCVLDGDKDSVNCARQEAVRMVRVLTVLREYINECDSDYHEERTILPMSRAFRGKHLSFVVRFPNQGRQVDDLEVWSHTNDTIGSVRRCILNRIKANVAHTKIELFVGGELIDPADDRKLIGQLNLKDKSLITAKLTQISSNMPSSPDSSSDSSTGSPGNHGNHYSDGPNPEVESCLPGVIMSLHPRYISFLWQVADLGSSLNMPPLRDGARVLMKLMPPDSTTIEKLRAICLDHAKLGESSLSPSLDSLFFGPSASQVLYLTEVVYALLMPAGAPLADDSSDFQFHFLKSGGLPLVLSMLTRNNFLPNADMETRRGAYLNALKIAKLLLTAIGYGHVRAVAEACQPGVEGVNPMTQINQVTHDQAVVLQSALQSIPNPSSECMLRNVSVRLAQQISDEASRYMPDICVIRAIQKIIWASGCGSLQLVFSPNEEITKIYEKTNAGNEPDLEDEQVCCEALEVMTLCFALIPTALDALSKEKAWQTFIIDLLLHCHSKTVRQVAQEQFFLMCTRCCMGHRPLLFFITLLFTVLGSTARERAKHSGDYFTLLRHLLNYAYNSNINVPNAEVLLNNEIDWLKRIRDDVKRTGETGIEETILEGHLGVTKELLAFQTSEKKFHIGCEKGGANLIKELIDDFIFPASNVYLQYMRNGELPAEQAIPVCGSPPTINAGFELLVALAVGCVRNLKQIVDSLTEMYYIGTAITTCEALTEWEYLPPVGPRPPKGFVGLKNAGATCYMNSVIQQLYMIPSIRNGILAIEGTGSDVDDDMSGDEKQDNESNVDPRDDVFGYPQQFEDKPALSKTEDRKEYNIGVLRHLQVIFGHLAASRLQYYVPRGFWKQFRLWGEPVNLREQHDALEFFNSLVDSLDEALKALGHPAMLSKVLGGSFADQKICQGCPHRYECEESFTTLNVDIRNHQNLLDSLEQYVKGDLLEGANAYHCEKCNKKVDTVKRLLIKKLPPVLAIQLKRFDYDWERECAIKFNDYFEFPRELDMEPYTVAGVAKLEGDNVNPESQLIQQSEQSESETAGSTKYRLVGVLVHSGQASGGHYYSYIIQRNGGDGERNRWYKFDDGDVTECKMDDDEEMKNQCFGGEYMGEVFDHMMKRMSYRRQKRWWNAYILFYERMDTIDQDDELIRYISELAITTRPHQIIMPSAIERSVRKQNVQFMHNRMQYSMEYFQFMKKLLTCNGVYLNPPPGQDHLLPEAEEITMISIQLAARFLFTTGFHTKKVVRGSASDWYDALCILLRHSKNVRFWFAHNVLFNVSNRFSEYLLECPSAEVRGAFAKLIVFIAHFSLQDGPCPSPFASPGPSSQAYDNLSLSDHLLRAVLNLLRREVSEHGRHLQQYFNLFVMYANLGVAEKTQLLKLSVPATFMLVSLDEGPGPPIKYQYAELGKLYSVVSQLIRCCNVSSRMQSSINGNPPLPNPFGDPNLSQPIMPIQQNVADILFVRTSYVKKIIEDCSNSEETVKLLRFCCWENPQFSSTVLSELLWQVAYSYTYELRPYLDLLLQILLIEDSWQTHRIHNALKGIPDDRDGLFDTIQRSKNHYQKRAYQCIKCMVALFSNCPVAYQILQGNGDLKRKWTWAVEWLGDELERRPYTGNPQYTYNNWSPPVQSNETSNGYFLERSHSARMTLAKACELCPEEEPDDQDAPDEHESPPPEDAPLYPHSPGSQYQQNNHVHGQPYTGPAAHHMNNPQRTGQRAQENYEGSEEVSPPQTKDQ

Take `CCCC(NC(=O)/C(C#N)=C/c1nc(Cl)ccc1Cl)c1ccc(OCCN2CCOCC2)cc1` (stereo not drawn): the result in the series with Tulane virus, in the series with A375/R [2], in the series with MM1.S, in the series with A375/R [10], in the series with A375/R [14] and in the series on Murine norovirus [15] was Active. For the same compound, the outcome in the series with Murine norovirus [18] was Active. For the same compound, in the series with Mus musculus [1], the “inhibition (INH)” value was “Active”. In addition, the inhibition entry (in series [3]; in series [8]; in the series on Mus musculus [11]; in series [12]; in [13]; in [17]) was “Active” each time. Moreover, the inhibition result in [19] and in series [20] was “Active” throughout. In addition, the Activity entry in the series with Mus musculus [4], in the series with Mus musculus [5], in the series with Mus musculus [9] and with Mus musculus [16] was “Not toxic” in each case. In addition, the figures for the concentration at 2 h in series [6] and in series [7] were 0.0358 to 0.059 µg/mL and 0.395 to 0.52 µg/mL, respectively. For the same compound, in the series on A-375, the TGI entry is “Active”.
